For 24 compounds, GI50 and TGI results are on record in PubChem BioAssay (NCI).

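All cell lines were grown in 96-well plates and treated with compound for 48 hours. GI50: concentration for 50% inhibition of growth. TGI is the concentration that stops growth completely.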

The subject of one assay is IGROV1 ovarian. Description: NCI tumour cell line growth inhibition, 48 h.
For the compound `Clc1ccc2c(c1)N(c1ncnc3ccc(-c4cnc5[nH]ncc5c4)cc13)CC2`, the GI50 is 0.11 µM and the TGI is 0.554 µM.

For the compound `O=C(CC1(O)C(=O)Nc2c(Cl)ccc(Cl)c21)c1ccc(Cl)cc1Cl` (centres undefined), the TGI is 35.4 µM.

Take `C=C1C2Oc3ccccc3C1N(c1ccccc1)O2` (centres undefined): the TGI is > 100 µM.

For the compound `O=C(c1cccs1)C1NO[N+]([O-])=C1c1cccs1` (centres undefined), the GI50 is 1.75 µM and the TGI stood at 3.72 µM.

On to `CC(=O)[CH-]C(=O)c1ccccc1.CC(=O)[CH-]C(=O)c1ccccc1.CC1(C)OCC(C2OC3OC(C)(C)OC3C2[O-])O1.CC[O-].[Ti+4]` (centres undefined), for which the GI50 was 17.9 µM and the TGI amounted to 33.5 µM.

For the compound `CCOC(=O)C1(Cc2ccc3ccccc3c2)CCCCC(=O)N1` (centres undefined), the TGI is > 100 µM.

Consider `Cc1ccccc1/C=C/C(=O)c1ccccc1`, for which the TGI came out at 62.1 µM.

As for `Cc1cc2c(cc1Cl)S/C(=C/C(=O)O)C(Nc1cccc3nsnc13)=NS2(=O)=O`, the GI50 was > 49.9 µM and the TGI was > 78.3 µM.

Regarding `CCOC(=O)N1CCN(CCCCCOc2ccccc2C2CCCCC2)CC1`, the GI50 is 10.4 µM and the TGI is 23.1 µM.

In the case of `O=C1c2ccccc2-c2c1c1ccccc1c(=O)n2CCNCCn1c2c(c3ccccc3c1=O)C(=O)c1ccccc1-2`, the GI50 is > 25 µM and the TGI is > 25 µM.

In the case of `CCCCCCCCCCCCCC[n+]1cccc(C(N)=O)c1`, the GI50 was 0.197 µM and the TGI was 0.681 µM.

For the compound `C/C1=C\CC[C@@](C)(O)[C@@H]2C[C@H](CC/C(C)=C/CC1)C1(CC1)C(=O)O2`, the GI50 is 28.1 µM and the TGI is > 100 µM.

Another assay deals with COLO 205 colon. Description: NCI tumour cell line growth inhibition, 48 h.
`Cc1c(C(=O)/C=C/c2ccccc2[N+](=O)[O-])[n+](=O)c2ccccc2n1[O-]`: the TGI is 13.7 µM.

Regarding `O=C(/C=C/c1cccc(O)c1)c1cccc(-n2cc(-c3ccc4ccccc4c3)[nH]c2=O)c1`, the GI50 was 2.09 µM and the TGI is 4.65 µM.

Take `CCCCCCC(C)CCCCCCCCCCC(=O)O` (centres undefined): the TGI was > 100 µM.

As to `COc1ccc2c(NCCCCCCNc3c4ccccc4nc4cc(OC)ccc34)c3ccccc3nc2c1`, the TGI came out at 0.189 µM.

As to `O=C(O)c1ccccc1C(=O)c1ccc2c(c1)Cc1ccccc1-2`, the TGI is > 100 µM.

Compound `CC(C)(C)c1ccc(OC2CCO2)cc1` (centres undefined) yielded a TGI of 70.5 µM.

On to `C=CC1=C(C)C2=NC1=CC1=NC(=CC3=C(C)C4=C(O)[C@H](C(=O)OC)C(=C5NC(=C2)[C@@H](C)[C@@H]5CCC(=O)O)C4=N3)C(CC)=C1C`, for which the TGI turned out to be 11.8 µM.

On to `CC1(O)CCn2c(=O)c3cc4ccccc4cc3c(=O)n2C1O` (centres undefined), for which the TGI was > 100 µM.

Turning to `CC(C)[O-].CC(C)[O-].O=c1cccccc1[O-].O=c1cccccc1[O-].[Ti+4]`, the TGI is > 100 µM.

For `Clc1ccc2c(c1)N(c1ncnc3ccc(-c4cnc5[nH]ncc5c4)cc13)CC2`, the GI50 was 0.695 µM and the TGI is > 100 µM.

Turning to `O=C(CC1(O)C(=O)Nc2c(Cl)ccc(Cl)c21)c1ccc(Cl)cc1Cl` (centres undefined), the TGI was 31.7 µM.

`C=C1C2Oc3ccccc3C1N(c1ccccc1)O2` (centres undefined): the TGI is > 100 µM.

On to `O=C(c1cccs1)C1NO[N+]([O-])=C1c1cccs1` (centres undefined), for which the GI50 was 1.8 µM and the TGI turned out to be 4.51 µM.

Regarding `CC(=O)[CH-]C(=O)c1ccccc1.CC(=O)[CH-]C(=O)c1ccccc1.CC1(C)OCC(C2OC3OC(C)(C)OC3C2[O-])O1.CC[O-].[Ti+4]` (centres undefined), the GI50 was 17 µM and the TGI is 32.5 µM.

Turning to `CCOC(=O)C1(Cc2ccc3ccccc3c2)CCCCC(=O)N1` (centres undefined), the TGI was > 100 µM.

In turn, `Cc1ccccc1/C=C/C(=O)c1ccccc1` gave a TGI of 46.7 µM.

Take `Cc1cc2c(cc1Cl)S/C(=C/C(=O)O)C(Nc1cccc3nsnc13)=NS2(=O)=O`: the GI50 is > 48.3 µM and the TGI was > 61.5 µM.

As for `CCOC(=O)N1CCN(CCCCCOc2ccccc2C2CCCCC2)CC1`, the GI50 was 2.32 µM and the TGI stood at 7.14 µM.

Consider `O=C1c2ccccc2-c2c1c1ccccc1c(=O)n2CCNCCn1c2c(c3ccccc3c1=O)C(=O)c1ccccc1-2`, for which the GI50 was 2.2 µM and the TGI is > 25 µM.

Regarding `CCCCCCCCCCCCCC[n+]1cccc(C(N)=O)c1`, the GI50 is 1.29 µM and the TGI came to 2.72 µM.

Take `N#CC(C#N)=c1c2nsnc2c(=C(C#N)C#N)c2nsnc12`: the TGI came to 4.83 µM.

As for `C/C1=C\CC[C@@](C)(O)[C@@H]2C[C@H](CC/C(C)=C/CC1)C1(CC1)C(=O)O2`, the GI50 is 15.6 µM and the TGI is 36.4 µM.

A further assay concerns UACC-257 melanoma. Description: NCI tumour cell line growth inhibition, 48 h.
Take `CC(C)(C)OC(=O)NC1CCCC1=O` (centres undefined): the TGI is > 100 µM.

As for `Cc1c(C(=O)/C=C/c2ccccc2[N+](=O)[O-])[n+](=O)c2ccccc2n1[O-]`, the TGI is 20.4 µM.

`O=C(/C=C/c1cccc(O)c1)c1cccc(-n2cc(-c3ccc4ccccc4c3)[nH]c2=O)c1`: the GI50 was 4.13 µM and the TGI came out at 18.4 µM.

For `CCCCCCC(C)CCCCCCCCCCC(=O)O` (centres undefined), the TGI is > 100 µM.

On to `COc1ccc2c(NCCCCCCNc3c4ccccc4nc4cc(OC)ccc34)c3ccccc3nc2c1`, for which the TGI is 4.12 µM.

As to `O=C(O)c1ccccc1C(=O)c1ccc2c(c1)Cc1ccccc1-2`, the TGI was > 100 µM.

On to `CC(C)(C)c1ccc(OC2CCO2)cc1` (centres undefined), for which the TGI was 87.3 µM.

As for `C=CC1=C(C)C2=NC1=CC1=NC(=CC3=C(C)C4=C(O)[C@H](C(=O)OC)C(=C5NC(=C2)[C@@H](C)[C@@H]5CCC(=O)O)C4=N3)C(CC)=C1C`, the TGI came to 42.7 µM.

For the compound `CC1(O)CCn2c(=O)c3cc4ccccc4cc3c(=O)n2C1O` (centres undefined), the TGI was > 100 µM.

For `CC(C)[O-].CC(C)[O-].O=c1cccccc1[O-].O=c1cccccc1[O-].[Ti+4]`, the TGI was > 100 µM.

On to `COc1ccccc1NC(=O)/C(=C/c1ccccc1)C(C)=O`, for which the TGI is > 100 µM.

For `Clc1ccc2c(c1)N(c1ncnc3ccc(-c4cnc5[nH]ncc5c4)cc13)CC2`, the GI50 was > 100 µM and the TGI is > 100 µM.

`O=C(CC1(O)C(=O)Nc2c(Cl)ccc(Cl)c21)c1ccc(Cl)cc1Cl` (centres undefined) returned a TGI of 25.1 µM.

With `C=C1C2Oc3ccccc3C1N(c1ccccc1)O2` (centres undefined), the TGI is > 100 µM.

Consider `O=C(c1cccs1)C1NO[N+]([O-])=C1c1cccs1` (centres undefined), for which the GI50 was 5.16 µM and the TGI was determined as 15.3 µM.
